Experiments:
[1] = target: T1, recombinant human plasminogen activator inhibitor-1 (PAI-1) (Homo sapiens, UniProt P05121); assay: Primary Screen for the PAI-1 Inhibition (residual tPA activity, Spectrozyme-tPA chromogenic substrate); assay type: biochemical; details: pH 6.6 buffer; for inhibition at 10 µM: 10 μM test compound; for inhibition at 25 µM: 25 μM test compound
T1 construct: purchased Molecular Innovations, Royal Oak, Mich
Procedure: Test compounds are dissolved in DMSO at a final concentration of 10 mM, then diluted 100×in physiologic buffer. The inhibitory assay is initiated by the addition of the test compound (1-100 μM final concentration, maximun DMSO concentration of 0.2%) in a pH 6.6 buffer containing 140 Mn recombinant human plasminogen activator inhibitor-1 (PAI-1; Molecular Innovations, Royal Oak, Mich.). Following a 1 hour incubation at room temperature, 70 Mn of recombinant human tissue plasminogen activator (tPA) is added, and the combination of the test compound, PAI-1 and tPA is incubated for an additional 30 minutes. Following the second incubation, Spectrozyme-tPA (American Diagnostica, Greenwich, Conn.), a chromogenic substrate for tPA, is added and absorbance read at 405 nm at 0 and 60 minutes. Relative PAI-1 inhibition is equal to the residual tPA activity in the presence of the test compound and PAI-1. Control treatments include the complete inhibition of tPA by PAI-1 at the molar ratio employed (2:1), and the absence of any effect of the test compound on tPA alone.

human PAI-1 = human PAI-1 (Homo sapiens, UniProt P05121); assay: Assay for determining IC50 of inhibition of PAI-1 (Antibody Assay, active PAI-1 bound to tPA-coated plate); assay type: binding; details: pH 7.5 buffer, human PAI-1 50 ng/ml
Chain of human PAI-1 (P05121 24-402): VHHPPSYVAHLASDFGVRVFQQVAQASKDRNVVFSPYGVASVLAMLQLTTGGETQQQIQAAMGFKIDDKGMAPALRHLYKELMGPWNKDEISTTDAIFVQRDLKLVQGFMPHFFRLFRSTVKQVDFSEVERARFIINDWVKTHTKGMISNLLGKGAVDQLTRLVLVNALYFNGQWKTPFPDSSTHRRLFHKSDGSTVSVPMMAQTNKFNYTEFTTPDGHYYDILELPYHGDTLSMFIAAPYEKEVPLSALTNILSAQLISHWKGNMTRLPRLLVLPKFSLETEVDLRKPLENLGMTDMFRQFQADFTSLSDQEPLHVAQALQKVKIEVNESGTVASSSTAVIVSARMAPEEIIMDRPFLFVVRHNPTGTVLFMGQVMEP
Procedure: This assay is based upon the non-SDS dissociable interaction between tPA and active PAI-1. Assay plates are initially coated with human tPA (10 μg/ml). Test compounds of the present invention are dissolved in DMSO at 10 mM, then diluted with physiologic buffer (pH 7.5) to a final concentration of 1-50 μM. Test compounds are incubated with human PAI-1 (50 ng/ml) for 15 minutes at room temperature. The tPA-coated plate is washed with a solution of 0.05% Tween 20 and 0.1% BSA, then the plate is blocked with a solution of 3% BSA. An aliquot of the oxazolo-naphthyl acid/PAI-1 solution is then added to the tPA-coated plate, incubated at room temperature for 1 hour, and washed. Active PAI-1 bound to the plate is assessed by adding an aliquot of a 1:1000 dilution of the 33B8 monoclonal antibody against human PAI-1, and incubating the plate at room temperature for 1 hour (Molecular Innovations, Royal Oak, Mich.). The plate is again washed, and a solution of goat anti-mouse IgG-alkaline phosphatase conjugate is added at a 1:50,000 dilution in goat serum. The plate is incubated 30 minutes at room temperature, washed, and a solution of alkaline phosphatase substrate is added. The plate is incubated 45 minutes at room temperature, and color development is determined at OD405nm. The quantitation of active PAI-1 bound to tPA at varying concentrations of the test compound is used to determine the IC50. Results are analyzed using a logarithmic best-fit equation. The assay sensitivity is 5 ng/ml of human PAI-1 as determined from a standard curve ranging from 0-100 ng/ml.

T1 sequence (P05121 24-402): as above

SMILES	inhibition at 10 µM [1]	inhibition at 25 µM [1]	melting point	IC50 (human PAI-1)
c1ccc(Cc2ncc(-c3ccc4cc(OCc5nnn[nH]5)ccc4c3)o2)cc1 [Example 13, 5-({[6-(2-benzyl-1,3-oxazol-5-yl)-2-naphthyl]oxy}methyl)-1H-tetraazole]	11%	23%	227 to 228 °C	
CCCCc1oc2ccccc2c1-c1ncc(-c2ccc3c(Br)c(OCc4ccc(C(=O)O)cc4)ccc3c2)o1 [Example 19, 4-[({1-bromo-6-[2-(2-butyl-1-benzofuran-3-yl)-1,3-oxazol-5-yl]-2-naphthyl}oxy)methyl]benzoic acid]	12%	23%	281 to 283 °C	
c1ccc(Cn2cc(-c3ncc(-c4ccc5cc(OCc6nnn[nH]6)ccc5c4)o3)c3ccccc32)cc1 [Example 7, 1-benzyl-3-{5-[6-(1H-tetrazol-5-ylmethoxy)-2-naphthyl]-1,3-oxazol-2-yl}-1H-indole]	19%	61%	244 to 246 °C	
c1ccc2cc(Cc3ncc(-c4ccc5cc(OCc6nnn[nH]6)ccc5c4)o3)ccc2c1 [Example 15, 5-[({6-[2-(2-naphthylmethyl)-1,3-oxazol-5-yl]-2-naphthyl}oxy)methyl]-1H-tetrazole]	22%	48%	179 to 182 °C	
Cn1cc(-c2ncc(-c3ccc4cc(OCC(=O)O)ccc4c3)o2)c2ccccc21 [Example 9, ({6-[2-(1-Methyl-1H-indol-3-yl)-1,3-oxazol-5-yl]-2-naphthyl}oxy)acetic acid]	3%	24%	269 to 272 °C	
O=C(O)C(Cc1ccccc1)Oc1ccc2cc(-c3cnc(Cc4ccccc4)o3)ccc2c1 (centres unmarked) [Example 11, 2-{[6-(2-benzyl-1,3-oxazol-5-yl)-2-naphthyl]oxy}-3-phenylpropanoic acid]	18%	31%	78 to 82 °C	
O=C(O)COc1ccc2cc(-c3cnc(-c4cn(Cc5ccccc5)c5ccccc45)o3)ccc2c1 [Example 6, ({6-[2-(1-benzyl-1H-indol-3-yl)-1,3-oxazol-5-yl]-2-naphthyl}oxy)acetic acid]	4%	28%	238 to 242 °C	
O=C(O)COc1ccc2cc(-c3cnc(Cc4ccccc4)o3)ccc2c1 [Example 12, {[6-(2-benzyl-1,3-oxazol-5-yl)-2-naphthyl]oxy}acetic acid]	0%	26%	236 to 238 °C	
CCCCc1oc2ccccc2c1-c1ncc(-c2ccc3cc(OC(Cc4ccccc4)C(=O)O)ccc3c2)o1 (centres unmarked) [Example 3, 2-({6-[2-(2-butyl-1-benzofuran-3-yl)-1,3-oxazol-5-yl]-2-naphthyl}oxy)-3-phenylpropanoic acid]	32%	66%	174 to 177 °C	26.6 µM
Cn1cc(-c2ncc(-c3ccc4cc(OC(Cc5ccccc5)C(=O)O)ccc4c3)o2)c2ccccc21 (centres unmarked) [Example 8, 2-({6-[2-(1-methyl-1H-indol-3-yl)-1,3-oxazol-5-yl]-2-naphthyl}oxy)-3-phenylpropanoic acid]	2%	75%	149 to 151 °C	
CCCCc1oc2ccccc2c1-c1ncc(-c2ccc3c(Br)c(OCc4nnn[nH]4)ccc3c2)o1 [Example 16, 5-[({1-bromo-6-[2-(2-butyl-1-benzofuran-3-yl)-1,3-oxazol-5-yl]-2-naphthyl}oxy)methyl]-1H-tetrazole]	11%	16%	235 to 237 °C	
Cn1cc(-c2ncc(-c3ccc4cc(OCc5nnn[nH]5)ccc4c3)o2)c2ccccc21 [Example 10, 1-methyl-3-{5-[6-(1H-tetrazol-5-ylmethoxy)-2-naphthyl]-1,3-oxazol-2-yl}-1H-indole]	16%	35%	254 to 256 °C	
CCCCc1oc2ccccc2c1-c1ncc(-c2ccc3cc(OCc4ccc(C(=O)O)cc4C(=O)O)ccc3c2)o1 [Example 18, 4-[({6-[2-(2-butyl-1-benzofuran-3-yl)-1,3-oxazol-5-yl]-2-naphthyl}oxy)methyl]isophthalic acid]	33%	62%	285 to 287 °C	
O=C(O)COc1ccc2cc(-c3cnc(Cc4ccc5ccccc5c4)o3)ccc2c1 [Example 14, ({6-[2-(2-naphthylmethyl)-1,3-oxazol-5-yl]-2-naphthyl}oxy)acetic acid]	12%	17%	258 to 260 °C	
c1ccc(-c2ncc(-c3ccc4cc(OCc5nnn[nH]5)ccc4c3)o2)cc1 [Example 1, 5-({[6-(2-phenyl-1,3-oxazol-5-yl)-2-naphthyl]oxy}methyl)-1H-tetraazole]	17%	65%	239 to 241 °C	68.4 µM
CCCCc1oc2ccccc2c1-c1ncc(-c2ccc3cc(OCC(=O)O)ccc3c2)o1 [Example 4, ({6-[2-(2-butyl-1-benzofuran-3-yl)-1,3-oxazol-5-yl]-2-naphthyl}oxy)acetic acid]	23%	46%	214 to 216 °C	22.7 µM
O=C(O)C(Cc1ccccc1)Oc1ccc2cc(-c3cnc(-c4cn(Cc5ccccc5)c5ccccc45)o3)ccc2c1 (centres unmarked) [Example 5, 2-({6-[2-(1-benzyl-1H-indol-3-yl)-1,3-oxazol-5-yl]-2-naphthyl}oxy)-3-phenylpropanoic acid]	1%	34%	125 to 127 °C	47.4 µM
CCCCc1oc2ccccc2c1-c1ncc(-c2ccc3cc(OCc4nnn[nH]4)ccc3c2)o1 [Example 2, 5-[({6-[2-(2-butyl-1-benzofuran-3-yl)-1,3-oxazol-5-yl]-2-naphthyl}oxy)methyl]-1H-tetraazole]	12%	52%	238 to 240 °C	19.4 µM
CCCCc1oc2ccccc2c1-c1ncc(-c2ccc3cc(OCc4ccc(C(=O)O)cc4)ccc3c2)o1 [Example 17, 4-[({6-[2-(2-butyl-1-benzofuran-3-yl)-1,3-oxazol-5-yl]-2-naphthyl}oxy)methyl]benzoic acid]	14%	20%	251 to 254 °C	

— patent US7754747B2, “Oxazolo-naphthyl acids” (Wyeth LLC, priority 2004, dated 2010)
